# Test results: US6022526A, “Use of texaphyrins in detection of melanin and melanin metabolites diagnostic of melanotic melanoma” (Pharmacyclics, Inc., priority 1997, dated 2000)
# Tests used:
# [1] = cited from earlier work
# [2] = tested on: B16F10 melanotic melanoma murine cells; assay: Confocal laser scanning (fluorescent) microscopy of lutetium texaphyrin in melanoma cells; format: cell-based; conditions: 20 μg/ml LuT2BET, 1 to 24 h
# Procedure: Fluorescent Microscopy of Texaphyrin in Melanoma Cells
# The present example provides results from fluorescent microscopy studies using lutetium texaphyrin (LuT2BET) incorporated into melanoma cells.
# B16F10 melanotic melanoma murine cells as described in Example 2 were incubated with 20 μg/ml LuT2BET for 1 to 24 h in Waymouth's medium supplemented with 15% fetal bovine serum. The adherent cells were washed thoroughly with PBS (3×) and examined using confocal laser scanning microscopy.
# (§1) Melanoma Cells: B16F10 melanotic melanoma murine cells were obtained from the University of California, San Francisco Cell Culture Facility. These cells are highly pigmented and metastatic in vivo. Cells were grown in Iscove's Modified Dulbeccos' Medium (Gibco, Grand Island, N.Y.) supplemented with 10% fetal bovine serum (JRH Biosciences, Woodland, Calif.) and penicillin/streptomycin (Sigma, St. Louis, Mo.).
# B16 melanoma = assay: Biodistribution of LuT2BET in B16 melanoma-bearing mice (fluorescence of tissue extracts and plasma); format: in vivo, C57 mice
# Procedure: The present example provides results from a study of the biodistribution of lutetium texaphyrin in melanoma-bearing mice. The biodistribution of LuT2BET was analyzed in C57 mice bearing B16 melanoma at 3 h, 5 h, and 24 h after an intravenous administration of 10 or 20 μmol/kg.
# (§2) LuT2BET: The synthesis and chemical analysis of lutetium texaphyrin (LuT2BET, texaphyrin A2 of Tables A and B where M is lutetium) was provided in, for example, U.S. Pat. No. 5,622,946 and in PCT publication W095/10307. LuT2BET was dissolved in 5% mannitol at a 2 mM concentration. LuT2BET absorbs strongly in the far-red region of the electromagnetic spectrum, having a molar extinction coefficient of 23,000 M^-1 cm^-1 in this solution at 732 nm.
# as §1
# Animals and Tumor Model: Inbred C57BL/6N female mice, (C57 mice) seven to eight weeks of age, were obtained from Simonsen Laboratories Inc. (Gilroy, Calif.). […] Tumor size, i.e., length (l), width (w), and height (h), was measured 3 times a week with a vernier caliper. Tumor volumes were calculated using the formula for a hemiellipsoid (Rockwell and Kallman, 1972): […]
# Tissue Extraction Procedure: LuT2BET was administered via tail-vein injection at 10 or 20 μmol/kg. Tissues and plasma were analyzed at 3, 5 or 24 h post administration of the photosensitizer. […] Plasma samples (125 μL) were mixed with 10 mM TRITON X-100® and analyzed for texaphyrin content by fluorescence. […] Samples were then analyzed for lutetium texaphyrin content by fluorescence (excitation=450 nm, emission=700-800 nm). […] Texaphyrin accumulation is expressed as μg drug/g tissue (wet weight) or per mL plasma.
# Statistical analysis: Values are expressed as mean±SD. […]
# carcinoma SMT-F = assay: Pharmacological data with radiolabeled [^14 C]-LuT2BET in SMT-F bearing mice; format: in vivo; conditions: 8.64 μmol/kg
# Procedure: A dose of 8.64 μmol/kg LuT2BET produced drug uptake values of 5.1 μg/g, 4.7 μg/g, and 2.8 μg/g at 3 h, 5 h, and 24 h after injection, yielding tumor:muscle ratios of 8.45:1, 10:1 and 7:1, respectively.
# [3] = Absorption of LuT2BET in 5% mannitol; format: physicochemical; conditions: 732 nm, 2 mM in 5% mannitol
# Procedure: as §2
SMILES,tumor specificity ([1]; compared with an ideal detecting agent),levels in normal brain (caudate) ([1]; in vivo),localization at dendritic processes ([2]; listed as Lutetium texaphyrin),localization in melanosomes ([2]; listed as Lutetium texaphyrin),localization at dendritic processes ([2]; listed as lutetium texaphyrin),localization in melanosomes ([2]; listed as lutetium texaphyrin),"tumor:muscle ratio (x:1) (B16 melanoma; 10 μmol/kg i.v., 5 h)","tumor localizing capacity (B16 melanoma; mouse, in vivo)","uptake into B16 melanoma compared to carcinoma SMT-F (B16 melanoma; mouse, in vivo)",tumor:muscle ratio (x:1) (carcinoma SMT-F; 3 h),drug uptake (tumor) (carcinoma SMT-F; 3 h after injection) [µg/g],tumor:muscle ratio (x:1) (carcinoma SMT-F; 5 h),drug uptake (tumor) (carcinoma SMT-F; 5 h after injection) [µg/g],tumor:muscle ratio (x:1) (carcinoma SMT-F; 24 h),drug uptake (tumor) (carcinoma SMT-F; 24 h after injection) [µg/g],molar extinction coefficient [3]
"CN1CCc2ccc(O)cc2C(c2ccccc2)C1 (stereo not shown) [BZZ, 2,3,4,5-tetrahydro-3-methyl-5-phenyl-1H-3-benzazepin-7-ol]",significantly less tumor-specific than an ideal detecting agent,levels that may be toxic,,,,,,,,,,,,,,
CC(=O)[O-].CC(=O)[O-].CCc1c(CC)c2cc3nc(cnc4cc(OCCOCCOCCOC)c(OCCOCCOCCOC)cc4ncc4nc(cc1[n-]2)C(CCCO)=C4C)C(C)=C3CCCO.O.[Lu+3] [LuT2BET],,,collect at the dendritic processes,highly concentrated in the melanosomes of melanoma cells,collects at the dendritic processes,highly concentrated in the melanosomes of melanotic melanoma cells,15,good tumor localizing capacity,increased uptake,8.45,5.1,10,4.7,7,2.8,"23,000 M^-1 cm^-1"
